Assay results from ChEMBL document CHEMBL1150412, “1,5-Diphenylpyrrole derivatives as antimycobacterial agents. Probing the influence on antimycobacterial activity of lipophilic substituents at the phenyl rings” (J Med Chem, 2008).
Values after ≈ are worked out from the molar mass of the structure shown.

Columns and labels:
[1] = test system: Mycobacterium tuberculosis; experiment: Antimycobacterial activity against isoniazid-resistant Mycobacterium tuberculosis; assay type: functional
[2] = test system: Mycobacterium tuberculosis; experiment: Antimycobacterial activity against rifampicin-resistant Mycobacterium tuberculosis; assay type: functional

| SMILES | MIC [1] | MIC [2] |
| --- | --- | --- |
| Cc1c(CN2CCN(C)CC2)cc(-c2ccc(Cl)cc2)n1-c1ccc(Cl)cc1 | 2 µg/mL (≈ 4.83 µM) | 1 µg/mL (≈ 2.41 µM) |
| Cc1ccc(-c2cc(CN3CCSCC3)c(C)n2-c2ccc(F)cc2)cc1 | 32 µg/mL (≈ 84.1 µM) | 0.5 µg/mL (≈ 1.31 µM) |
| Cc1c(CN2CCSCC2)cc(-c2ccc(Cl)cc2)n1-c1ccc(C(C)C)cc1 | > 16 µg/mL | 0.25 µg/mL (≈ 0.588 µM) |
| CCc1ccc(-n2c(-c3ccc(Cl)cc3)cc(CN3CCSCC3)c2C)cc1 | 16 µg/mL (≈ 38.9 µM) | 0.5 µg/mL (≈ 1.22 µM) |
| Cc1c(CN2CCSCC2)cc(-c2ccc(C(C)C)cc2)n1-c1ccc(F)cc1 | > 16 µg/mL | 0.25 µg/mL (≈ 0.612 µM) |
| Cc1ccc(-c2cc(CN3CCSCC3)c(C)n2-c2ccc(Cl)cc2)cc1 | 16 µg/mL (≈ 40.3 µM) | 0.5 µg/mL (≈ 1.26 µM) |
| CCc1ccc(-c2cc(CN3CCSCC3)c(C)n2-c2ccc(Cl)cc2)cc1 | 16 µg/mL (≈ 38.9 µM) | 0.25 µg/mL (≈ 0.608 µM) |
| Cc1ccc(-n2c(-c3ccc(Cl)cc3)cc(CN3CCSCC3)c2C)cc1 | > 16 µg/mL | 0.5 µg/mL (≈ 1.26 µM) |
| CCCc1ccc(-n2c(-c3ccc(Cl)cc3)cc(CN3CCSCC3)c2C)cc1 | > 16 µg/mL | 0.25 µg/mL (≈ 0.588 µM) |
| CCCc1ccc(-c2cc(CN3CCSCC3)c(C)n2-c2ccc(Cl)cc2)cc1 | > 16 µg/mL | 0.125 µg/mL (≈ 0.294 µM) |
| Cc1c(CN2CCSCC2)cc(-c2ccc(C(C)C)cc2)n1-c1ccc(Cl)cc1 | 8 µg/mL (≈ 18.8 µM) | 0.125 µg/mL (≈ 0.294 µM) |
| [H]/N=C(/N)N[C@H]1[C@H](O)[C@@H](O)[C@H](O[C@@H]2O[C@@H](C)[C@](O)(C=O)[C@H]2O[C@@H]2O[C@@H](CO)[C@H](O)[C@@H](O)[C@@H]2NC)[C@@H](N/C(N)=N\[H])[C@@H]1O (stereo in doubt) [STREPTOMYCIN] | 16 µg/mL (≈ 27.5 µM) | 4 µg/mL (≈ 6.88 µM) |
| NNC(=O)c1ccncc1 [ISONIAZID] | > 16 µg/mL | 0.25 µg/mL (≈ 1.82 µM) |
| CO[C@H]1/C=C/O[C@@]2(C)Oc3c(C)c(O)c4c(O)c(c(/C=N/N5CCN(C)CC5)c(O)c4c3C2=O)NC(=O)/C(C)=C\C=C\[C@H](C)[C@H](O)[C@@H](C)[C@@H](O)[C@@H](C)[C@H](OC(C)=O)[C@@H]1C [RIFAMPIN] | 0.25 µg/mL (≈ 0.304 µM) | > 64 µg/mL |
